{"source": "patent US8816095B2", "about": "“Na channels, disease, and related assays and compositions” (Georgetown University, priority 2008, dated 2014)", "key": {"human Nav1.2": {"target": "T1, human Nav1.2 (Homo sapiens, UniProt Q99250)", "T1 construct": "host or cells: HEK", "T1 sequence (Q99250 whole entry)": "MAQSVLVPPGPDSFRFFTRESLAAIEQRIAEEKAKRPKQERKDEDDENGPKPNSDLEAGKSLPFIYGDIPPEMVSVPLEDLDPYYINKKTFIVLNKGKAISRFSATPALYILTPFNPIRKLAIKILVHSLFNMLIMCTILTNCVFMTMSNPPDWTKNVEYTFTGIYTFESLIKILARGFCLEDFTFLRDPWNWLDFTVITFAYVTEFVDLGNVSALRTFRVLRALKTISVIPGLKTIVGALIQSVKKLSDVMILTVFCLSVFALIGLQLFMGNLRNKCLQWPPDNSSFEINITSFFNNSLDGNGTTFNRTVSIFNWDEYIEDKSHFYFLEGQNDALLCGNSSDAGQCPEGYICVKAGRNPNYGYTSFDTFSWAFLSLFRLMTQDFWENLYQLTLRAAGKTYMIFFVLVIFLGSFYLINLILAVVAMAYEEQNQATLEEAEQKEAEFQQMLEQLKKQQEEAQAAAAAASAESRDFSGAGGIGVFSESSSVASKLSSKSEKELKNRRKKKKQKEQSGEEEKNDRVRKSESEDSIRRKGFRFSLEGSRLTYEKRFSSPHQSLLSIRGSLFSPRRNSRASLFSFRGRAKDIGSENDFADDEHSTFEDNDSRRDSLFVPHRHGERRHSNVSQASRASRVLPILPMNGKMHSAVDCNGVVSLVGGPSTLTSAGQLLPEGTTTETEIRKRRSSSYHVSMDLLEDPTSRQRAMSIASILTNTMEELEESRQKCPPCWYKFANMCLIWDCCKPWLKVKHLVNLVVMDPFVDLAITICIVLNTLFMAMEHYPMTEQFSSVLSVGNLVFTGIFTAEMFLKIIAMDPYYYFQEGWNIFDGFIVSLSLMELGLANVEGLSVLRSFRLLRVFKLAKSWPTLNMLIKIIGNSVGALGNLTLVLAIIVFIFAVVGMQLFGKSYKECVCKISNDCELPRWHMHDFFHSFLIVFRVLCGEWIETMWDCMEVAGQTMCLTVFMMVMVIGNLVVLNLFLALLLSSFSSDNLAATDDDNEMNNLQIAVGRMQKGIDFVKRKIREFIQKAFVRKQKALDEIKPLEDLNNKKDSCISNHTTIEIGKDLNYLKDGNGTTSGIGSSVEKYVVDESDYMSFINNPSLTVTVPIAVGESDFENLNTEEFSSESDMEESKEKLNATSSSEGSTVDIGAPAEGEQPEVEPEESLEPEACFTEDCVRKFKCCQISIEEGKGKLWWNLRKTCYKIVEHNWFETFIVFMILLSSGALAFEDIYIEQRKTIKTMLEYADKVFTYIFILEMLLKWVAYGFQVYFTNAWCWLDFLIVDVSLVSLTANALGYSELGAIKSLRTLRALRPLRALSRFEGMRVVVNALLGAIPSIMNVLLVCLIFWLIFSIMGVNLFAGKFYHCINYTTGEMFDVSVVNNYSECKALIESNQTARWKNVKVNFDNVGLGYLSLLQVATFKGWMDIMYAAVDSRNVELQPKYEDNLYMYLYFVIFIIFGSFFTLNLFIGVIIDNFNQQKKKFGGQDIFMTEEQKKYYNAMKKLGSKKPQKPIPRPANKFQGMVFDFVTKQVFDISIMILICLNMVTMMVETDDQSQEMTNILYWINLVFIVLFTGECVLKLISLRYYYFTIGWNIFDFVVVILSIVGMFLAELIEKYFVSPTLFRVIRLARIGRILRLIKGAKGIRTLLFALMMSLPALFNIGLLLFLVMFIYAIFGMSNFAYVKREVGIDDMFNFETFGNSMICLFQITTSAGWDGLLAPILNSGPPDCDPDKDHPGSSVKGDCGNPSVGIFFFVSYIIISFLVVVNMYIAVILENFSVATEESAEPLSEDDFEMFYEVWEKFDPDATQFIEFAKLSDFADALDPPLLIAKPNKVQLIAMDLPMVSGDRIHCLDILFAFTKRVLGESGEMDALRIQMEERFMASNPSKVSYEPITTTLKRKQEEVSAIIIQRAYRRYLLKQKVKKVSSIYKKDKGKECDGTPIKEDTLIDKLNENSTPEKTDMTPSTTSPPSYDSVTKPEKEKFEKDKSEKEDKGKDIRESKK", "test": "Sodium channel electrophysiology of hermitamides (patch clamp)", "type": "cell-based", "conditions": "HEK human Nav1.2", "protocol": "To test whether these compounds were functionally active as sodium channel blockers, the effects of the hermitamides were tested on human embryonic kidney cells (HEK) cells stably expressing human Nav1.2 using the […].\nHuman embryonic kidney cells (HEK) cells stably expressing human Nav1.2 were a kind gift from Dr. H. A. Hartmann (University of Baltimore, Md., USA) and were grown in DMEM/F12 media (Invitrogen, Corp, CA, USA) supplemented with 10% fetal bovine serum, penicillin (100 U/ml), streptomycin (100 μg/ml) and G418 (500 μg/ml; Sigma, Mo., USA). Cells were grown in a humidified atmosphere of 5% CO2 and 95% air at 37° C.\nSodium currents were recorded using the whole-cell configuration of the patch clamp recording technique with an Axopatch 200 amplifier (Axon Instruments, Foster City, Calif.). All voltage protocols were applied using pCLAMP 9 software (Axon, USA) and a Digidata 1322A (Axon, USA). Currents were amplified and low pass filtered (2 kHz) and sampled at 33 kHz. Borosilicate glass pipettes were pulled using a Brown-Flaming puller (model P87, Sutter Instruments Co, Novato, Calif.) and heat polished to produce electrode resistances of […] when filled with the following electrode solution (in mM); CsCl 130, MgCl2 1, MgATP 5, BAPTA 10, HEPES 5 (pH adjusted to 7.4 with CsOH). Cells were plated on glass coverslips and superfused with solution containing the following composition; (in mM) NaCl 130, KCl 4, CaCl2 1, MgCl2 5, HEPES 5, and glucose 5 (pH adjusted to 7.4 with NaOH).\n(S)-Hermitamide B was prepared as 100 mM stock solutions in DMSO and diluted to the desired concentration in perfusion solution. The maximum DMSO concentration used was 0.1% and had no effect on current amplitude. All experiments were performed at room temperature (20-22° C.). After establishing whole-cell, a minimum series resistance compensation of 75% was applied. Sodium currents were elicited by a depolarizing step from a holding potential of −100 mV to +10 mV for a duration of 25 ms at 15 s intervals. (S)-Hermitamide B was applied after a 3 min control period and continued until a steady state current amplitude was observed. All data represent percentage mean block±standard error of the mean (S.E.M.)."}, "[1]": {"tested_on": "Na+ channel site 2 binding site", "test": "[3H]-BTX assay, rat forebrain membranes", "conditions": "± S.E.M., n in brackets", "protocol": "In order to determine if the hermitamides bind to the sodium channel, the natural products, their enantiomers, and the racemic mixture were tested for their ability to displace [^3H]-batrachatoxin. Batrachatoxin is a lipid-soluble neurotoxin that binds to site 2 of the sodium channel. This site is known to overlap with the local anesthetic binding […]. Ligands known to bind to […] of the sodium channel include anesthetics, anticonvulsants and antiarrthymics. As a control, phenyloin, a clinically-used sodium channel blocker that is known to displace [^3H]BTX was also included.\nThe assays were run at 10 μM and recorded as percent displacement of BTX.\nBriefly, rat forebrain membranes (10 mg tissue/well) were incubated with [^3H]-BTX (30-60 Ci/mmol). […] The reaction was terminated by rapid vacuum filtration of the reaction contents onto glass fiber filters. Radioactivity trapped onto the filters was determined and compared with control values to ascertain any interactions of the test compound with the Na^+ channel site 2 binding site. Aconitine (1 μM) was used as a positive control (Sigma Aldrich, Inc., St. Louis, Mo.)."}, "site 2 of the VGSC": {"tested_on": "site 2 of the VGSC", "test": "[3H]-BTX-B displacement assay at site 2", "type": "binding, rat", "conditions": "Screen at 40 μM, 2 replicates, referenced to Aconitine"}}, "data": [{"compound": "CCCCCCC[C@@H](C/C=C/CCC(=O)NCCc1ccccc1)OC", "note": "(racemic) [rac-hermitamide A]", "values": [{"measurement": "Patch-clamp percentage block, 1 μM", "setting": "human Nav1.2", "value": "49.7 ± 3.8 (4) %"}, {"measurement": "Patch-clamp percentage block, 10 μM", "setting": "human Nav1.2", "value": "90.2 ± 2.5 (3) %"}, {"measurement": "% [3H]-BTX Displacement At 10 μM", "setting": "[1]", "value": "15.71 ± 0.14 (2) %"}]}, {"compound": "CCCCCCC[C@@H](C/C=C/CCC(=O)NCCc1c[nH]c2ccccc12)OC", "note": "(racemic) [rac-hermitamide B]", "values": [{"measurement": "Patch-clamp percentage block, 100 nM", "setting": "human Nav1.2", "value": 24.3, "unit": "%"}, {"measurement": "Patch-clamp percentage block, 1 μM", "setting": "human Nav1.2", "value": "88.4 ± 2.9 (40%"}, {"measurement": "Patch-clamp percentage block, 10 μM", "setting": "human Nav1.2", "value": "100 (1) %"}, {"measurement": "% [3H]-BTX Displacement At 10 μM", "setting": "[1]", "value": "36.05 ± 0.77 (2) %"}]}, {"compound": "CCCCCCCC(C/C=C/CCC(=O)O)OC", "note": "(racemic) [rac-lyngbic acid]", "values": [{"measurement": "Patch-clamp percentage block, 100 μM", "setting": "human Nav1.2; 100 μM", "value": 55.6, "unit": "%"}, {"measurement": "% [3H]-BTX Displacement At 10 μM", "setting": "[1]", "value": "7.35 ± 2.88 (2) %"}]}, {"compound": "CCCCCCC[C@H](C/C=C/CCC(=O)NCCc1ccccc1)OC", "note": "[(R)-hermitamide A, Phenethyl (7R,4E)-methoxytetradecenamide]", "values": [{"measurement": "Patch-clamp percentage block, 1 μM", "setting": "human Nav1.2", "value": "58.7 ± 1.3 (4) %"}, {"measurement": "% [3H]-BTX Displacement At 10 μM", "setting": "[1]", "value": "13.79 ± 1.28 (2) %"}]}, {"compound": "CCCCCCC[C@H](C/C=C/CCC(=O)NCCc1c[nH]c2ccccc12)OC", "note": "[(R)-hermitamide B, 2-(1H-indol-3-yl)-ethyl (7R,4E)-Methoxytetradecenamide]", "values": [{"measurement": "Patch-clamp percentage block, 100 nM", "setting": "human Nav1.2", "value": 28.8, "unit": "%"}, {"measurement": "Patch-clamp percentage block, 1 μM", "setting": "human Nav1.2", "value": "93.6 (1) %"}, {"measurement": "% [3H]-BTX Displacement At 10 μM", "setting": "[1]", "value": "20.31 ± 5.82 (2) %"}]}, {"compound": "CCCCCCC[C@H](C/C=C/CCC(=O)O)OC", "note": "[(R)-lyngbic acid, (7R,4E)-Methoxytetradecenoic Acid]", "values": [{"measurement": "Patch-clamp percentage block, 100 nM", "setting": "human Nav1.2", "value": 11.9, "unit": "%"}, {"measurement": "Patch-clamp percentage block, 1 μM", "setting": "human Nav1.2", "value": "52.5 ± 3.9 (4) %"}, {"measurement": "% [3H]-BTX Displacement At 10 μM", "setting": "[1]", "value": "11.91 ± 0.16 (2) %"}]}, {"compound": "CCCCCCC[C@@H](C/C=C/CCC(=O)NCCc1ccccc1)OC", "note": "[(S)-hermitamide A, Phenethyl (7S,4E)-methoxytetradecenamide]", "values": [{"measurement": "Patch-clamp percentage block, 1 μM", "setting": "human Nav1.2", "value": "~50", "unit": "%"}, {"measurement": "Patch-clamp percentage block, 10 μM", "setting": "human Nav1.2", "value": "94.4 ± 1.3 (4) %"}, {"measurement": "% [3H]-BTX Displacement At 10 μM", "setting": "[1]", "value": "15.89 ± 3.06 (2) %"}]}, {"compound": "CCCCCCC[C@@H](C/C=C/CCC(=O)NCCc1c[nH]c2ccccc12)OC", "note": "[(S)-hermitamide B, 2-(1H-indol-3-yl)-ethyl (7S,4E)-Methoxytetradecenamide]", "values": [{"measurement": "Patch-clamp percentage block, 1 μM", "setting": "human Nav1.2", "value": 80, "unit": "%"}, {"measurement": "Patch-clamp percentage block, 1 μM", "setting": "human Nav1.2; listed as Hermitamide B", "value": "~80", "unit": "%"}, {"measurement": "Patch-clamp percentage block, 10 μM", "setting": "human Nav1.2", "value": "100 (3) %"}, {"measurement": "% [3H]-BTX Displacement At 10 μM", "setting": "[1]", "value": "29.02 ± 0.29 (2) %"}]}, {"compound": "CCCCCCC[C@@H](C/C=C/CCC(=O)O)OC", "note": "[(S)-lyngbic acid, (7S,4E)-Methoxytetradecenoic Acid]", "values": [{"measurement": "Patch-clamp percentage block, 10 μM", "setting": "human Nav1.2", "value": "44.4 ± 0.3 (4) %"}, {"measurement": "% [3H]-BTX Displacement At 10 μM", "setting": "[1]", "value": "7.77 ± 2.20 (2) %"}]}, {"compound": "C#CC(O)(CCCCCCC)c1cccc(Cl)c1", "note": "(centres unmarked) [Compound 12]", "values": [{"measurement": "[3H]-BTX-B Binding Data, Displacement %", "setting": "site 2 of the VGSC", "value": 78, "unit": "%"}]}, {"compound": "C#C/C(=C\\CCCCCC)c1cccc(Cl)c1", "note": "[Compound 13]", "values": [{"measurement": "[3H]-BTX-B Binding Data, Displacement %", "setting": "site 2 of the VGSC", "value": 32, "unit": "%"}]}, {"compound": "C=CCCCCCC1(c2cccc(Cl)c2)NC(=O)NC1=O", "note": "(centres unmarked) [Compound 16]", "values": [{"measurement": "[3H]-BTX-B Binding Data, Displacement %", "setting": "site 2 of the VGSC", "value": 79, "unit": "%"}]}, {"compound": "C=CCCCCCC1(c2cccc(Cl)c2)NC(=O)N(Cc2ccccc2)C1=O", "note": "(centres unmarked) [Compound 17]", "values": [{"measurement": "[3H]-BTX-B Binding Data, Displacement %", "setting": "site 2 of the VGSC", "value": 23, "unit": "%"}]}, {"compound": "O=C1NC(=O)C(CCCCCC2CO2)(c2cccc(Cl)c2)N1", "note": "(centres unmarked) [Compound 18]", "values": [{"measurement": "[3H]-BTX-B Binding Data, Displacement %", "setting": "site 2 of the VGSC", "value": 28, "unit": "%"}]}, {"compound": "O=C1NC(=O)C(CCCCCC2CC2)(c2cccc(Cl)c2)N1", "note": "(centres unmarked) [Compound 20]", "values": [{"measurement": "[3H]-BTX-B Binding Data, Displacement %", "setting": "site 2 of the VGSC", "value": 8, "unit": "%"}]}]}
